# Measurements reported in PMC10382351, “In vivo evaluation of a novel ^18F-labeled PET radioligand for translocator protein 18 kDa (TSPO) in monkey brain” (European Journal of Nuclear Medicine and Molecular Imaging, 2023).
# Values joined by “and” are separate entries in the source; they are usually repeats but may differ in a detail not shown here. Identical values can stand only once. “Also recorded” adds a separate entry of the source.
# Tested on: 18 kDa translocator protein (TSPO)
# Test: PET imaging of [^18F]SF51 in rhesus monkey brain with kinetic analysis (2TCM, Logan plot, Lassen plot)
# Type: in vivo
# Settings: for Estimated K1: three rhesus monkeys; for VT/fP using Logan plot: n=3
# Protocol: Electrocardiogram, body temperature, heart rate, and respiratory rate measures were monitored throughout the scan.
# Brain PET imaging was performed using a microPET Focus 220 camera (Siemens Medical Solution; Knoxville, TN). […] For baseline experiments, 20 mL of a vehicle containing 20% (2-hydroxypropyl)-β-cyclodextrin and two equivalents of HCl were injected intravenously 10 min before radioligand administration. For the blocked experiment, PK11195 was dissolved in vehicle and then injected intravenously (5 mg/kg) 10 min before radioligand injection for all three monkeys. One of the three monkeys underwent an additional blocked scan with 5 mg/kg of PBR28, performed using a MultiScan™ LFER 150 PET/CT (Mediso USA, LLC; Arlington, VA). The interval between baseline and blocked imaging sessions was at least three weeks in order to allow the monkey to recover from arterial blood sampling. Focus 220 PET images were histogrammed into 30 time frames (6 × 30, 3 × 60, 2 × 120, 4 × 300, and 15 × 600 s) and reconstructed using Fourier rebinning plus a two-dimensional filtered back-projection with scatter and attenuation correction. MultiScan LFER PET images were reconstructed with 3D-OSEM with two iterations and nine subsets and were corrected for scatter and attenuation.
# PET images were co-registered to a standardized monkey MRI template using PMOD software (PMOD version 4.1, PMOD Technologies Ltd.; Zurich, Switzerland). Thirty-three predefined regions of interest (ROIs) from a monkey brain template were applied to the co-registered PET images to obtain regional time-activity curves (Supplementary Table S2). Brain uptake was expressed as standardized uptake value (SUV), which normalizes for injected radioactivity and body weight. Using the brain time-activity curves and the radiometabolite-corrected arterial input function, the total VT was derived from a two-tissue compartment model (2TCM). Receptor occupancy by PK11195 and nondisplaceable distribution volume (VND/fP) of [^18F]SF51 were determined by an axes-transformed Lassen plot, where the y-axis reports the difference in VT between the baseline and the blocked scans, corrected by the respective fp values, and the x-axis reports the values at baseline (VTbase/fPbase).
smiles,measurement,setting,value
CC[C@@H](C)N(C)C(=O)c1nc(-c2cccc([18F])c2)c2ccccc2n1 [[^18F]SF51],VT/fP,"Baseline, Amygdala, 2TCM, n = 3",242 mL·cm^−3
same,Estimated K1,"Baseline, Amygdala, 2TCM",0.29 mL·cm^-3·min^-1
same,VT/fP using Logan plot,"Baseline, Amygdala",229 mL·cm^-3
same,VT/fP,"Baseline, Amygdala, one monkey (PBR28 experiment)",284 mL·cm^-3
same,VT/fP,"Baseline, Cerebellum, 2TCM, n = 3",179 mL·cm^−3
same,Estimated K1,"Baseline, Cerebellum, 2TCM",0.34 mL·cm^-3·min^-1
same,VT/fP using Logan plot,"Baseline, Cerebellum",172 mL·cm^-3
same,VT/fP,"Baseline, Cerebellum, one monkey (PBR28 experiment)",208 mL·cm^-3
same,VT/fP,"Baseline, Cingulate Cortex, 2TCM, n = 3",218 mL·cm^−3
same,Estimated K1,"Baseline, Cingulate Cortex, 2TCM",0.30 mL·cm^-3·min^-1
same,VT/fP using Logan plot,"Baseline, Cingulate Cortex",208 mL·cm^-3
same,VT/fP,"Baseline, Cingulate Cortex, one monkey (PBR28 experiment)",260 mL·cm^-3
same,VT/fP,"Baseline, Frontal Cortex, 2TCM, n = 3",201 mL·cm^−3
same,Estimated K1,"Baseline, Frontal Cortex, 2TCM",0.30 mL·cm^-3·min^-1
same,VT/fP using Logan plot,"Baseline, Frontal Cortex",192 mL·cm^-3
same,VT/fP,"Baseline, Frontal Cortex, one monkey (PBR28 experiment)",241 mL·cm^-3
same,VT/fP,"Baseline, Hippocampus, 2TCM, n = 3",220 mL·cm^−3
same,Estimated K1,"Baseline, Hippocampus, 2TCM",0.33 mL·cm^-3·min^-1
same,VT/fP using Logan plot,"Baseline, Hippocampus",211 mL·cm^-3
same,VT/fP,"Baseline, Hippocampus, one monkey (PBR28 experiment)",253 mL·cm^-3
same,VT/fP,"Baseline, Insula, 2TCM, n = 3",224 mL·cm^−3
same,Estimated K1,"Baseline, Insula, 2TCM",0.35 mL·cm^-3·min^-1
same,VT/fP using Logan plot,"Baseline, Insula",214 mL·cm^-3
same,VT/fP,"Baseline, Insula, one monkey (PBR28 experiment)",264 mL·cm^-3
same,VT/fP,"Baseline, Occipital Cortex, 2TCM, n = 3",183 mL·cm^−3
same,Estimated K1,"Baseline, Occipital Cortex, 2TCM",0.31 mL·cm^-3·min^-1
same,VT/fP using Logan plot,"Baseline, Occipital Cortex",175 mL·cm^-3
same,VT/fP,"Baseline, Occipital Cortex, one monkey (PBR28 experiment)",217 mL·cm^-3
same,VT/fP,"Baseline, Parietal Cortex, 2TCM, n = 3",202 mL·cm^−3
same,Estimated K1,"Baseline, Parietal Cortex, 2TCM",0.30 mL·cm^-3·min^-1
same,VT/fP using Logan plot,"Baseline, Parietal Cortex",193 mL·cm^-3
same,VT/fP,"Baseline, Parietal Cortex, one monkey (PBR28 experiment)",246 mL·cm^-3
same,VT/fP,"Baseline, Striatum, 2TCM, n = 3",225 mL·cm^−3
same,Estimated K1,"Baseline, Striatum, 2TCM",0.38 mL·cm^-3·min^-1
same,VT/fP using Logan plot,"Baseline, Striatum",215 mL·cm^-3
same,VT/fP,"Baseline, Striatum, one monkey (PBR28 experiment)",266 mL·cm^-3
same,VT/fP,"Baseline, Temporal Cortex, 2TCM, n = 3",209 mL·cm^−3
same,Estimated K1,"Baseline, Temporal Cortex, 2TCM",0.30 mL·cm^-3·min^-1
same,VT/fP using Logan plot,"Baseline, Temporal Cortex",201 mL·cm^-3
same,VT/fP,"Baseline, Temporal Cortex, one monkey (PBR28 experiment)",241 mL·cm^-3
same,VT/fP,"Baseline, Thalamus, 2TCM, n = 3",218 mL·cm^−3
same,Estimated K1,"Baseline, Thalamus, 2TCM",0.35 mL·cm^-3·min^-1
same,VT/fP using Logan plot,"Baseline, Thalamus",208 mL·cm^-3
same,VT/fP,"Baseline, Thalamus, one monkey (PBR28 experiment)",259 mL·cm^-3
same,VT/fP,"Baseline, Whole Brain, 2TCM, n = 3",203 ± 15 mL·cm^−3 and 203 mL·cm^−3
same,Estimated K1,"Baseline, Whole Brain, 2TCM",0.31 mL·cm^-3·min^-1
same,VT/fP using Logan plot,"Baseline, Whole Brain",194 mL·cm^-3
same,VT/fP,"Baseline, Whole Brain, one monkey (PBR28 experiment)",240 mL·cm^-3
same,VT/fP,"Blocked (PK11195 5 mg/kg i.v.), Amygdala, 2TCM, n = 3",23 mL·cm^−3
same,VT/fP,"Blocked (PK11195 5 mg/kg i.v.), Cerebellum, 2TCM, n = 3",26 mL·cm^−3
same,VT/fP,"Blocked (PK11195 5 mg/kg i.v.), Cingulate Cortex, 2TCM, n = 3",25 mL·cm^−3
same,VT/fP,"Blocked (PK11195 5 mg/kg i.v.), Frontal Cortex, 2TCM, n = 3",26 mL·cm^−3
same,VT/fP,"Blocked (PK11195 5 mg/kg i.v.), Hippocampus, 2TCM, n = 3",21 mL·cm^−3
same,VT/fP,"Blocked (PK11195 5 mg/kg i.v.), Insula, 2TCM, n = 3",23 mL·cm^−3
same,VT/fP,"Blocked (PK11195 5 mg/kg i.v.), Occipital Cortex, 2TCM, n = 3",23 mL·cm^−3
same,VT/fP,"Blocked (PK11195 5 mg/kg i.v.), Parietal Cortex, 2TCM, n = 3",24 mL·cm^−3
same,VT/fP,"Blocked (PK11195 5 mg/kg i.v.), Striatum, 2TCM, n = 3",26 mL·cm^−3
same,VT/fP,"Blocked (PK11195 5 mg/kg i.v.), Temporal Cortex, 2TCM, n = 3",22 mL·cm^−3
same,VT/fP,"Blocked (PK11195 5 mg/kg i.v.), Thalamus, 2TCM, n = 3",27 mL·cm^−3
same,VT/fP,"Blocked (PK11195 5 mg/kg i.v.), Whole Brain, 2TCM, n = 3",24 mL·cm^−3
same,Estimated K1,"Blocked (PK11195), Amygdala, 2TCM",0.38 mL·cm^-3·min^-1
same,VT/fP using Logan plot,"Blocked (PK11195), Amygdala",23 mL·cm^-3
same,Estimated K1,"Blocked (PK11195), Cerebellum, 2TCM",0.62 mL·cm^-3·min^-1
same,VT/fP using Logan plot,"Blocked (PK11195), Cerebellum",25 mL·cm^-3
same,Estimated K1,"Blocked (PK11195), Cingulate Cortex, 2TCM",0.34 mL·cm^-3·min^-1
same,VT/fP using Logan plot,"Blocked (PK11195), Cingulate Cortex",24 mL·cm^-3
same,Estimated K1,"Blocked (PK11195), Frontal Cortex, 2TCM",0.36 mL·cm^-3·min^-1
same,VT/fP using Logan plot,"Blocked (PK11195), Frontal Cortex",25 mL·cm^-3
same,Estimated K1,"Blocked (PK11195), Hippocampus, 2TCM",0.48 mL·cm^-3·min^-1
same,VT/fP using Logan plot,"Blocked (PK11195), Hippocampus",21 mL·cm^-3
same,Estimated K1,"Blocked (PK11195), Insula, 2TCM",0.37 mL·cm^-3·min^-1
same,VT/fP using Logan plot,"Blocked (PK11195), Insula",23 mL·cm^-3
same,Estimated K1,"Blocked (PK11195), Occipital Cortex, 2TCM",0.40 mL·cm^-3·min^-1
same,VT/fP using Logan plot,"Blocked (PK11195), Occipital Cortex",22 mL·cm^-3
same,Estimated K1,"Blocked (PK11195), Parietal Cortex, 2TCM",0.35 mL·cm^-3·min^-1
same,VT/fP using Logan plot,"Blocked (PK11195), Parietal Cortex",23 mL·cm^-3
same,Estimated K1,"Blocked (PK11195), Striatum, 2TCM",0.65 mL·cm^-3·min^-1
same,VT/fP using Logan plot,"Blocked (PK11195), Striatum",25 mL·cm^-3
same,Estimated K1,"Blocked (PK11195), Temporal Cortex, 2TCM",0.36 mL·cm^-3·min^-1
same,VT/fP using Logan plot,"Blocked (PK11195), Temporal Cortex",22 mL·cm^-3
same,Estimated K1,"Blocked (PK11195), Thalamus, 2TCM",0.50 mL·cm^-3·min^-1
same,VT/fP using Logan plot,"Blocked (PK11195), Thalamus",26 mL·cm^-3
same,Estimated K1,"Blocked (PK11195), Whole Brain, 2TCM",0.41 mL·cm^-3·min^-1
same,VT/fP using Logan plot,"Blocked (PK11195), Whole Brain",24 mL·cm^-3
same,VT/fP,"Blocked, PBR28 pre-blockade (5 mg/kg), Amygdala, one monkey",9 mL·cm^-3
same,VT/fP,"Blocked, PBR28 pre-blockade (5 mg/kg), Cerebellum, one monkey",10 mL·cm^-3
same,VT/fP,"Blocked, PBR28 pre-blockade (5 mg/kg), Cingulate Cortex, one monkey",10 mL·cm^-3
same,VT/fP,"Blocked, PBR28 pre-blockade (5 mg/kg), Frontal Cortex, one monkey",10 mL·cm^-3
same,VT/fP,"Blocked, PBR28 pre-blockade (5 mg/kg), Hippocampus, one monkey",9 mL·cm^-3
same,VT/fP,"Blocked, PBR28 pre-blockade (5 mg/kg), Insula, one monkey",10 mL·cm^-3
same,VT/fP,"Blocked, PBR28 pre-blockade (5 mg/kg), Occipital Cortex, one monkey",10 mL·cm^-3
same,VT/fP,"Blocked, PBR28 pre-blockade (5 mg/kg), Parietal Cortex, one monkey",10 mL·cm^-3
same,VT/fP,"Blocked, PBR28 pre-blockade (5 mg/kg), Striatum, one monkey",10 mL·cm^-3
same,VT/fP,"Blocked, PBR28 pre-blockade (5 mg/kg), Temporal Cortex, one monkey",9 mL·cm^-3
same,VT/fP,"Blocked, PBR28 pre-blockade (5 mg/kg), Thalamus, one monkey",12 mL·cm^-3
same,VT/fP,"Blocked, PBR28 pre-blockade (5 mg/kg), Whole Brain, one monkey",10 mL·cm^-3
same,VND/fP (x-intercept of the regression lines),"Lassen plot, monkey brain, n = 3",27 ± 11 mL· cm^−3
same,Increase of K1 in blocked scans compared to baseline scans,"all regions, PK11195",about 30%
same,x-intercept of Lassen plot (VND/fP),"mean ± SD, n = 3",27 ± 11
same,Decrease of VT/fP (binding displaced) after blockade with PK11195,"monkey brain, PK11195 5 mg/kg i.v.",~ 90%
same,Mean SUV peak in brain after pre-blockade,"monkey brain, after 5 mg/kg PK11195, n = 3",3.0 ± 0.5 SUV
same,Brain activity relative to the peak,"monkey brain, baseline, at 180 min",30 % of the peak
same,Brain activity relative to the peak,"monkey brain, baseline, by 110 min",50 % of the peak
same,Peak concentration of brain radioactivity (mean SUV peak),"monkey whole brain, baseline, n = 3",2.0 SUV and 2.0 ± 0.1 SUV
same,Uptake in the skull,"monkey, baseline, blocked by PK11195 and PBR28",No significant uptake; also recorded: low uptake
same,BPND of whole brain,"monkey, ratio of specific binding to nondisplaceable uptake, n = 3",7.6 ± 4.3 and 7.6
